Experimental data as given in US20120128728A1 (NOVARTIS PHARMA AG, priority 2005, published 2012).

How the values were obtained:
in vivo [1] = assay: in vivo; parameters: species or system dogs; conditions: both sexes, dog
From the text: On Study Days 1 and 14, blood samples for toxicokinetic analysis were obtained from designated animals in the vehicle and high-dose groups before exposure and 2, 4, 8, 12, and 24 hr after exposure, and daily during the 14-day recovery period. Main-study animals were euthanized and necropsied on day 15, recovery animals on day 29, during which the right anterior lobe of each animal was obtained for toxicokinetic analysis.

Aspergillus fumigatus = tested on: Aspergillus fumigatus
Protocol: This study had three groups, with 10 rabbits each. Group 1 received the immunosuppressive regimen of intravenous cytarabine and methyl prednisolone and a sham saline inoculation. Group 2 received the immunosuppressive regimen and 5×10^7 conidia of A. fumigatus. […] The immunosuppressive agents were administered by intravenous injection. Antibiotics to prevent bacterial infections were administered by intravenous injection or in the drinking water.
Evaluations performed in this study included mortality and morbidity, daily clinical observations, body weights, clinical pathology (hematology and clinical chemistry), gross necropsy, lung weight, enumeration of visible lung infarctions, fungal colony forming unit (CFU) measurements in BAL, blood, and lung tissue samples, and histopathological evaluation of lung tissue.
There were 3 study groups with 10 rabbits in each group in this experiment. Group 1 received the immunosuppressive regimen of intravenous cytarabine and methyl prednisolone and a sham saline inoculation. Group 2 received the immunosuppressive regimen and 5×10^7 conidia of A. fumigatus.
New Zealand White SPF rabbits that were dual catheterized with vascular access ports (VAPs) and weighing between 2.5 to 4.0 kg at study initiation were used. The rabbits were randomly assigned to treatment groups using a computerized body weight stratification procedure.
In this regard, powder from a blister pack was actuated from the inhaler into a chamber. The small animal ventilator pushed the dispersed powder into an endotracheal tube. The delivery efficiency to the animal was determined by measuring the gravimetric mass of the powder collected on a filter connected to the end of the endotracheal tube. The mass collected on the filter was normalized to the actual blister pack fill weight. The delivery efficiency was used to calculate the estimated dose (mg) for the in vivo experiments.

in vivo [2] = assay: in vivo; parameters: species or system rabbits; conditions: rabbit
Protocol: This Example describes results obtained in the plasma and lung tissue only.
The lot number of the formulation was N020042. The test powder was hand-filled into blister packs and contact sealed at 340° F. for 1.0 second, with an approximate fill weight of approximately 1.5 mg per blister pack.
(§1) The test inhalation was administered in a single inhalation exposure.
The study included two groups each comprised of 48 rabbits. […] Four animals were sacrificed at each of the following time points after dosing: 0.16, 0.3, 1, 1.3, 2, 3, 4, 5, 14, 21, 28, and 45 days. Plasma and lung tissue were collected and analyzed for amphotericin B content using LC/MS-MS. Lower limits of quantitation (LLQ) of the assays were 5 ng/mL in plasma and 20 ng/g in lung tissue.

[3] = tested on: Aspergillus fumigatus, NIH strain 4215; assay: Efficacy of inhaled amphotericin B for prophylaxis in rabbits (Example 13); type: in vivo, New Zealand White SPF rabbits; conditions: for survival rate: day 14
Protocol: The test powder was hand-filled into blister packs and contact sealed at 340° F. for 1.0 second, with an approximate fill weight of approximately 1.5 mg per blister pack.
as §1
Aspergillus fumigatus, NIH strain 4215, was obtained from American Type Culture Collection (ATCC). Inoculum of A. fumigatus was prepared on Sabouraud dextrose flasks. Conidia were harvested with a solution of 0.025% Tween 20 in 0.9% sodium chloride, transferred to a conical tube, washed, and counted. The concentration was adjusted with the same solution to achieve 5×10^7 conidia in 300 μL. Animals in challenged groups were inoculated with the same volume. Inoculation was performed on anesthetized rabbits. Rabbits were intubated using an endotracheal tube and the inoculum was then administered intratracheally with a tuberculin syringe attached to a catheter introduced through the endotracheal tube.
The study included 6 groups each comprised of 10 rabbits. These groups are described in Table 6, below. All groups were immunosuppressed and treated with antibiotics to prevent bacterial infections. The immunosuppression and antibiotic cover regimen is detailed in Table 7, below.

[4] = Dry powder toxicology study in rats with daily or weekly dosing (Example 15); type: in vivo; conditions: dosages up to 30.60 mg/kg/dose amphotericin B alone
Protocol: The information obtained was used to select dose levels and/or dose regimens for subsequent toxicity studies.
The following investigations were performed: clinical observations, body weight, hematology, clinical chemistry, organ weight, histopathology, toxicokinetics, and bioanalytical chemistry.

[5] = Toxicity of two dry powders in rats with daily or weekly dosing (Example 16); type: in vivo
Protocol: The following investigations were performed: clinical observations, body weight, respiratory measurements, hematology, clinical chemistry, histopathology, toxicokinetics, and bioanalytical chemistry.

[6] = Toxicity of two dry powders in beagle dogs, once weekly inhalation (Example 17); type: in vivo
Protocol: The animals were dosed using a close fitting face mask (fitted with a mouth tube) system for 30 min per day according to Table 15, above.

[7] = Fourteen-day inhalation toxicity/toxicokinetic study in rats; type: in vivo; conditions: both sexes, rat, lung tissue, inhaled, recovery period, read-out: lung tissue elimination half-life (t1/2) (converted)
Protocol: Recovery animals were retained for a 14-day postdose recovery period. On study days 1 and 14, blood samples for toxicokinetic analysis were obtained from designated animals in the vehicle only and high-dose (25 mg/kg) groups at predose, 2 hr postdose, and 4 hr postdose. Toxicokinetic blood samples were also obtained during the 14-day recovery period on recovery Days 7 and 14 for males, and on recovery Day 14 only for females due to their lower body weight.
All study animals were subjected to a detailed necropsy on completion of the 14-day treatment period (Day 15) or completion of the 14-day recovery period (Day 29). During necropsy, lung tissue samples for toxicokinetic analysis were obtained from each animal.

fungus = assay: Minimum inhibitory concentration (MIC)
Protocol: The MIC may be expressed as a particular concentration value or as a range of concentrations. […] As used herein, unless otherwise specified, the MIC value shall be taken to be the particular value when a particular MIC value is determined and shall be taken to be a midrange value when a range of MIC values is determined. MIC determinations may be made according to processes known in the art.

[8] = rat, in vivo
Protocol: (§2) The animals were dosed using a snout only exposure technique for about 60 min on 5 occasions at weekly intervals. Recovery animals were retained for an approximate one month recovery period.
(§3) The following investigations were performed: clinical observations, body weight, food consumption, ophthalmology, hematology, clinical chemistry, urinalysis, histopathology, and toxicokinetics.

[9] = One month inhalation toxicity study in rats
Protocol: as §2, §3

[10] = Group 3: 1.5 mg/kg inhaled 1 day before 5×10^7 conidia
[11] = Group 3: 1.5 mg/kg inhaled at day −12
[12] = Group 4: 0.15 mg/kg inhaled at day −1
[13] = Group 5: 0.5 mg/kg inhaled at day −1
[14] = Group 6: 1.5 mg/kg inhaled at Day −1

C[C@@H]1[C@H](O)[C@@H](C)/C=C/C=C/C=C/C=C/C=C/C=C/C=C/[C@H](O[C@@H]2O[C@H](C)[C@@H](O)[C@H](N)[C@@H]2O)C[C@@H]2O[C@](O)(C[C@@H](O)C[C@@H](O)[C@H](O)CC[C@@H](O)C[C@@H](O)CC(=O)O[C@H]1C)C[C@H](O)[C@H]2C(=O)O [amphotericin B]
half-life (in vivo [1]): 18.8 days | Kaplan-Meier survival compared with Group 2 (A. fumigatus only) (Aspergillus fumigatus; Group 3): significant (p<0.05) increase | animals observed wheezing, gasping, or having rales (Aspergillus fumigatus; Group 3): five | animals with more than 20 grossly visible lung infarctions (Aspergillus fumigatus; Group 3, gross necropsy): 20% | animals with visible lung infarction (Aspergillus fumigatus; Group 3, gross necropsy): 80% | animals with mycotic hyphae present in lung (Aspergillus fumigatus; Group 3, histopathology): 50% | average survival time (Aspergillus fumigatus; [10]): 13 days | median day of death or sacrifice (Aspergillus fumigatus; [10]): 14 days | animals having 1 or more tissues positive for fungus (Aspergillus fumigatus; Group 3, BAL, blood, lung tissue culture, 9 animals): 44% | effect against A. fumigatus induced mortality (Aspergillus fumigatus; conclusion): prophylactic effect | animals surviving beyond nine days (Aspergillus fumigatus; immunosuppressed, exposed, treated rabbits (FIG. 20)): 100% | Tmax (in vivo [2]; 0.25 mg/kg): 1.33 days | group mean lung Cmax (in vivo [2]; 0.25 mg/kg): 8.0 µg/g | half-life (in vivo [2]; 0.25 mg/kg): 12.2 days | Tmax (in vivo [2]; 1.5 mg/kg): 1 days | group mean lung Cmax (in vivo [2]; 1.5 mg/kg): 46.6 µg/g | half-life (in vivo [2]; 1.5 mg/kg): 10.6 days | median survival time [3, 11]: 10 days | survival rate [3, 11]: 0% | median survival time [3, 12]: 9 days | survival rate [3, 12]: 10% | median survival time [3, 13]: 10.5 days | survival rate [3, 13]: 10% | median survival time [3, 14]: 10 days | survival rate [3, 14]: 10% | Logrank pairwise comparison of Groups 3-6 with untreated Group 2 ([3]; all doses and treatment days): significant (P<0.001) protection | premature demise [4]: 3 animals | clinical signs ([5]; dosages up to 14.80 mg/kg amphotericin B alone): clinical signs indicative of respiratory distress | necropsy findings ([5]; rats, both powders): no notable necropsy findings | changes in body weight, hematology, clinical chemistry, food consumption, respiratory measurement [6]: no significant changes | clinical signs ([6]; all dose groups including vehicle control): salivation | necropsy or histopathology findings attributable to administration ([6]; doses up to 8.2 (3.2) mg/kg weekly): no necropsy or histopathology findings | half-life ([7]; 1.1 mg/kg dose level): 22 days | half-life ([7]; 12.4 mg/kg dose level): 34 days | midrange MIC value (fungus): about 2.25 μg/g | effects on body weight, food consumption, ophthalmology, hematology, clinical chemistry, or organ weights [8]: no adverse effects | mortalities during the study ([9]; 198 M and 198 F rats, one death pretrial): 181 | animals with pneumonia/pleuritis, collapse or alveolar inflammation ([9]; Groups 3 to 6, Main Study): 17/110 | time to maximum plasma concentration after cessation of dosing ([9]; rats, toxicokinetics): ≤ 4 h
